Test results published in patent US12492195B2, “Preparation method for and crystal form of 3-aryloxy-3-five-membered heteroaryl-propylamine compound” (Zhangzhou Pien Tze Huang Pharmaceutical Co., Ltd., priority 2020, dated 2025).
Converted amounts (≈) assume the structure as drawn.

Assays:
TRPM8 = target: T1, TRPM8 (Homo sapiens, UniProt Q7Z2W7); experiment: Manual patch clamp detection on TRPM8 channel; type: cell-based
T1 construct: expressed in transfected cells
Method: (§1) TRPM8 cells were cultured in a cell culture dish with a diameter of 35 mm, placed in an incubator in 5% CO2 at 37° C., and passaged at a ratio of 1:5 every 48 hours. The formula of medium was 90% DMEM (Invitrogen), 10% fetal bovine serum (Gibco), 2 mM L-glutamine, 50 μg/mL Hygromycin B (Invitrogen) and 5 μg/mL Blasticidine HCl (Invitrogen). Before electrophysiological patch clamp experiment, the cell culture medium was replaced with medium containing 1 μg/mL doxycycline for at least 16 hours to induce TRPM8 expression.
(§2) On the day of the experiment, the cell culture medium was aspirated, the cell were rinsed once with extracellular fluid, and then 0.25% Trypsin-EDTA (Invitrogen) solution was added, and digested at room temperature for 1-2 minutes. The digestion solution was aspirated, the cell were resuspended with extracellular fluid, and transferred to the experimental dish for electrophysiological recording for further experiment.
Preparation of menthol: 100.00 mM of DMSO stock solution of menthol was added to the extracellular solution, diluting 1000-fold to 100.00 μM of menthol solution.
Preparation of AMTB: 5 μL of DMSO stock solution (20.00 mM) of AMTB was added to 4995 μL of menthol solution (100.00 uM), diluting 1000-fold to obtain the final concentration of 20.00 μM AMTB to be tested.
Preparation of IC-1: 20.00 mM or 10.00 mM of stock solution of IC-1 was taken and added to the agonist solution of the corresponding channel, diluting 1000 or 2000-fold to the final concentration of 10.00 μM of […] solution to be tested.
(§3) HEK293 cells stably expressing TRP channels, the corresponding agonist-induced channel current was recorded by whole-cell patch clamp technique at room temperature. […] Clamp voltages and data recording were controlled and recorded by a computer using pClamp 11 software with the sampling frequency of 10 kHz and the filtering frequency of 2 kHz. […] After the current was evoked for more than 40 s and no attenuation was determined, the dosing process started. […]

TRPV4 = target: T2, TRPV4 (Homo sapiens, UniProt Q9HBA0); experiment: Manual patch clamp detection on TRPV4 channel; type: cell-based; settings: 10.00 μM, HEK293, GSK1016790A-induced current
T2 construct: expressed in transfected cells
Method: as §1, with “TRPV4” for “TRPM8”, “the expression of TRPV4.” for “TRPM8 expression.”
as §2, with “experiment. […]” for “experiment.”
as §3

[1] = Solubility of free compound Ic-1 in different solvents; type: physicochemical; settings: thermodynamic from solid, room temperature
Method: The free base of the compound of formula Ic-1 was used as the starting material to obtain other salt forms. The free base of the compound of formula Ic-1 was an oily substance, and the solubility of the free base of the compound of formula Ic-1 in 11 common solvents was tested at room temperature. In the experiment, about 2 mg of compound Ic-1 oily sample was weighed into a 3-ml vial, and then the corresponding solvent was gradually added (50, 50, 200, 700 μLL) and shaken until the solution was clear. If the sample was still not dissolved after adding the solvent to 1 ml, the solvent was not added any more. The rough solubility range calculated according to the mass of the solid sample, the volume of the added solvent and the observed dissolution phenomenon was shown in Table 8.

T1 sequence (Q7Z2W7 whole entry, species assumed): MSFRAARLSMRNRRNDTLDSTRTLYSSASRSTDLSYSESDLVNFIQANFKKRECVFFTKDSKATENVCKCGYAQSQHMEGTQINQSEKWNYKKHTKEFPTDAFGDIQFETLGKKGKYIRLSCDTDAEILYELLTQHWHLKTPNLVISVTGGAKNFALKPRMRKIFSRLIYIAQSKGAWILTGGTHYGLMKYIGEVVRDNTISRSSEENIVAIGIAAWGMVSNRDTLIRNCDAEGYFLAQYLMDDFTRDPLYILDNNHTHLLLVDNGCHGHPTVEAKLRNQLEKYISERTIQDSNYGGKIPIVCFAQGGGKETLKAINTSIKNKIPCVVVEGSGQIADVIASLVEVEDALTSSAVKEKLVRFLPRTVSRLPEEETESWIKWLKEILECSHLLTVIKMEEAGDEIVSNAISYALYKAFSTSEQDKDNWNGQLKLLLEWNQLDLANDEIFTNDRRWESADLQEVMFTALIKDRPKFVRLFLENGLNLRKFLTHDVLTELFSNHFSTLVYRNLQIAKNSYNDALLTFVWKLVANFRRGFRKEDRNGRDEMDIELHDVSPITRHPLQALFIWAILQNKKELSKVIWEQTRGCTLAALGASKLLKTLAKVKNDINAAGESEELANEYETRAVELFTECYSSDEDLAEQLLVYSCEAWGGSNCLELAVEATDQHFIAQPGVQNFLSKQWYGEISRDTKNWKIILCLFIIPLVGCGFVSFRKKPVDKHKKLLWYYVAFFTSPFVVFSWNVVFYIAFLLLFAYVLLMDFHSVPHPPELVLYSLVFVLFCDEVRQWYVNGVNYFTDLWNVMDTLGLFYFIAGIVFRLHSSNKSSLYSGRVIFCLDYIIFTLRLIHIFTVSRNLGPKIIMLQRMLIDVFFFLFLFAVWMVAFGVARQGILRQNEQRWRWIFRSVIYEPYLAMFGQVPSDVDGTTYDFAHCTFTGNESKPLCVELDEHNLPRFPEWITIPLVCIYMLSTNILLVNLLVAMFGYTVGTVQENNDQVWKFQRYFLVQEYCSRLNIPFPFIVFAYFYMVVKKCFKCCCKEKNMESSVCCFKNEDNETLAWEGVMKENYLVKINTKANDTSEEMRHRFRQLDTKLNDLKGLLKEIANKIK
T2 sequence (Q9HBA0 whole entry, species assumed): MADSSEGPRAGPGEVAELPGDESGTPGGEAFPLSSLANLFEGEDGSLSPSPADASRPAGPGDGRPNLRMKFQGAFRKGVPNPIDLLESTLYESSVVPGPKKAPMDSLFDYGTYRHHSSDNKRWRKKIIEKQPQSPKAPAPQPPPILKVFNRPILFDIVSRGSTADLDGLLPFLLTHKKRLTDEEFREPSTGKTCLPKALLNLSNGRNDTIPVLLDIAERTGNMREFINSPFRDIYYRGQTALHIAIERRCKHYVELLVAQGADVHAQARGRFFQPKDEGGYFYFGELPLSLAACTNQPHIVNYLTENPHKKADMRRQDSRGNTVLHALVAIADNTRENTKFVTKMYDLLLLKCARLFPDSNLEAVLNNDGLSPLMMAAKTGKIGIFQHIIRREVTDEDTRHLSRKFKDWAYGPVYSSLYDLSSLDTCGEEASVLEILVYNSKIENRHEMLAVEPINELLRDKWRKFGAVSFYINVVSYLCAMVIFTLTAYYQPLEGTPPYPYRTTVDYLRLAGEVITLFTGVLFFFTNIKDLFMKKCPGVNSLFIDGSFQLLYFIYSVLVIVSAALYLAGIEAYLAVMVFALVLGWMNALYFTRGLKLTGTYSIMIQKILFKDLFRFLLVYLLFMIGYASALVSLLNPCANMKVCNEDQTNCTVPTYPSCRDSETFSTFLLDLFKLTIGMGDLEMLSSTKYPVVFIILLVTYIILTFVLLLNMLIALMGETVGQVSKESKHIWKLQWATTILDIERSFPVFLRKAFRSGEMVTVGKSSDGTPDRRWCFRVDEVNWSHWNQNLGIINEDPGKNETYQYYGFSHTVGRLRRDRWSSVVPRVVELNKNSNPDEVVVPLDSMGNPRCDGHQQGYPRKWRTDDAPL

inhibition at 10 µM (TRPM8; 10.00 μM, HEK293, menthol-induced current): 41.1% | IC50 (TRPM8; read-out: IC50 of the compound to TRPM8): > 10 µM | inhibition at 10 µM (TRPV4): 4.68% | solubility ([1]; aqueous with cosolvent or surfactant or cyclodextrin, Methanol:Water (1:1)): > 38 mg/mL | solubility ([1]; organic solvent or mixture, Acetone): > 46 mg/mL | solubility ([1]; organic solvent or mixture, Acetonitrile): > 54 mg/mL | solubility ([1]; organic solvent or mixture, Dimethyl sulfoxide): > 38 mg/mL | solubility ([1]; organic solvent or mixture, Ethanol): > 42 mg/mL | solubility ([1]; organic solvent or mixture, Ethyl acetate): > 36 mg/mL | solubility ([1]; organic solvent or mixture, Methanol): > 38 mg/mL | solubility ([1]; organic solvent or mixture, Methyl isobutyl ketone): > 42 mg/mL | solubility ([1]; organic solvent or mixture, Tetrahydrofuran): > 40 mg/mL | solubility ([1]; organic solvent or mixture, n-Heptane): 7.6 to 23 mg/mL (≈ 26.4 to 80 mM) | solubility ([1]; Water): < 2 mg/mL
SMILES: CNCC[C@H](Oc1cccc2ccoc12)c1cccs1 [IC-1, (S)-3-(Benzofuran-7-yloxy)-N-methyl-3-(thiophen-2-yl)propan-1-amine]
